# According to US20100285959A1, “HERBICIDAL MIXTURES” (priority 2006, published 2010):
# Legend:
# prickly lettuce (LACSE) = assay: Test 9 field trial, emerged weeds before corn planting; format: in vivo, Lactuca serriola; details: g a.i./ha: Cpd 2 100, Glyphosate 1540, Paraquat 1150
# Procedure: Corn seeds (hybrid ‘Pioneer 34M91 RR’) were planted in mid spring season, about 3.8 cm deep in a silty clay loam soil having a pH of 6.7. Plots were 9.1 m long by 3.0 m. The field was managed using no-till practices. […] Compound 2 and paraquat treatments, alone and in combination, also included a surfactant. Glyphosate, alone and with Compound 2, included ammonium sulfate in the treatment mixture. […] The effects on the weeds in the treated plots and untreated control plots were recorded 7, 14, 23, 30 and 57 days after application. Most of the weed species could not be evaluated at every timing. Corn response was only evaluated 57 days after application. […] Results are the means of the three replicates.
# redroot pigweed (AMARE) = assay: Test 2 field trial, preemergence; format: in vivo, Amaranthus retroflexus; design: scale not given here
# From the text: (§1) Corn seeds (hybrid ‘Pioneer 31G96’) were planted in mid spring season, 3.8 cm deep in a clay loam soil having 2% organic matter and a pH of 6.6. Plots were 6.1 m long by 3.0 m wide with rows spaced 76 cm apart. Seeds were spaced 15 cm apart within the rows. The field was managed using conventional tillage practices. […] A few of the weed species could not be evaluated at every timing. […] Results are the means of the three replicates.
# giant foxtail (SETFA) = assay: Test 2 field trial, preemergence; format: in vivo, Setaria faberi; design: scale not given here
# From the text: as §1
# velvetleaf (ABUTH) = assay: Test 2 field trial, preemergence; format: in vivo, Abutilon theophrasti; design: scale not given here
# From the text: as §1
# winter wheat (TRZAW) [1] = assay: Test 22 growth chamber, postemergence; format: in vivo, Triticum aestivum; details: 25 DAA; 2,4-D or MCPA alone 250 g a.i./ha
# Procedure: (§2) A test was conducted to evaluate the effects on winter barley (HORVW, Hordeum vulgare L.), winter wheat (TRZAW, Triticum aestivum L.), and several weed species of mixtures of Compound 2 with the commercial herbicides (2,4-dichlorophenoxy)acetic acid (2,4-D) and (4-chloro-2-methylphenoxy)acetic acid (MCPA), auxin mimics. […] Plants were treated postemergence at the 2-4 leaf growth stage, except KCHSC, SASKR and STEME which were in the 4-8 leaf growth stage. Each treatment was replicated one time. […] Plants were watered as needed. […] Results are from single replicates.
# winter wheat (TRZAW) [2] = assay: Test 23 growth chamber, postemergence; format: in vivo, Triticum aestivum; details: 21 DAA; 2,4-D or MCPA alone 250 g a.i./ha
# Procedure: A test was conducted to evaluate the effects on winter barley (HORVW, Hordeum vulgare L.), winter wheat (TRZAW, Triticum aestivum L.), and several weed species of mixtures of Compound 2 with the commercial herbicides (2,4-dichlorophenoxy)acetic acid (2,4-D) and (4-chloro-2-methylphenoxy)acetic acid (MCPA), auxin mimics. […] Plants were treated postemergence at the 2-4 leaf growth stage, and each treatment was replicated three times. […] Plants were watered as needed. […] Results are means of the three replicates.
# winter barley (HORVW) = assay: Test 19 growth chamber, postemergence; format: in vivo, Hordeum vulgare; details: Postemergence, 17 DAA, g a.i./ha: Cpd 2 16
# Procedure: A test was conducted to evaluate the effects on winter barley (HORVW, Hordeum vulgare L.) and winter wheat (TRZAW, Triticum aestivum L.) of mixtures of Compound 2 with the commercial herbicide (2,4-dichlorophenoxy)acetic acid (2,4-D), an auxin mimic. […] Plants were treated postemergence at the 3-leaf growth stage, and each treatment was replicated four times. […] Plants were watered as needed. […] Results are the means of the four replicates.
# kochia (KCHSC) = assay: Test 22 growth chamber, postemergence; format: in vivo, Kochia scoparia; details: 25 DAA; 2,4-D or MCPA alone 250 g a.i./ha
# Procedure: as §2
# wild poinsettia (EPHHL) = assay: Test 12 field trial, preemergence; format: in vivo, Euphorbia heterophylla; design: scale not given here; details: Cpd 2 or Cpd 1 62 g a.i./ha, Diuron 2000 g a.i./ha
# From the text: (§3) In early-mid spring season, corn seeds (hybrid ‘Pioneer 3041’) were planted 5 cm deep and sugarcane nodes (variety RB-72.454) were planted 10 cm deep in separate plots in a clay soil having 2.6% organic matter and a pH of 5.6. Plots were 24 m long by 1.5 m wide with rows spaced 80 cm (corn) or 140 cm (sugarcane) apart. Corn seeds were spaced 15 cm apart and sugarcane nodes were spaced 10 cm apart within the rows. At the same time, weed seeds were broadcast over the surface of separate plots without a crop, one weed species per plot. The weed plots were rotary tilled to incorporate the weed seeds to a variety of depths. The field was managed using conventional tillage practices.
# [3] = tested on: Ipomoea grandiflora (IPOGF); assay: Test 12 field trial, preemergence; format: in vivo; design: scale not given here; details: Cpd 2 or Cpd 1 62 g a.i./ha, Diuron 2000 g a.i./ha
# From the text: as §3
# wild spikenard (HPYSU) = assay: Test 12 field trial, preemergence; format: in vivo; design: scale not given here; details: Cpd 2 or Cpd 1 62 g a.i./ha, Diuron 2000 g a.i./ha
# From the text: as §3
# [4] = 28 DAA, g a.i./ha: Cpd 2 25, Atrazine 250
# [5] = 28 DAA, g a.i./ha: Cpd 2 50, Atrazine 500
# [6] = 28 DAA, g a.i./ha: Cpd 2 75, Atrazine 750
# [7] = 28 DAA, g a.i./ha: Cpd 2 100, Atrazine 1000
# [8] = 28 DAA, g a.i./ha: Cpd 2 150, Atrazine 1500
# [9] = 55 DAA, g a.i./ha: Cpd 2 25, Atrazine 250
# [10] = 55 DAA, g a.i./ha: Cpd 2 50, Atrazine 500
# [11] = 55 DAA, g a.i./ha: Cpd 2 75, Atrazine 750
# [12] = 55 DAA, g a.i./ha: Cpd 2 100, Atrazine 1000
# [13] = 55 DAA, g a.i./ha: Cpd 2 150, Atrazine 1500
# [14] = 18 DAA, g a.i./ha: Cpd 2 25, Atrazine 250
# [15] = 18 DAA, g a.i./ha: Cpd 2 50, Atrazine 500
# [16] = 18 DAA, g a.i./ha: Cpd 2 75, Atrazine 750
# [17] = 18 DAA, g a.i./ha: Cpd 2 100, Atrazine 1000
# [18] = 18 DAA, g a.i./ha: Cpd 2 150, Atrazine 1500
smiles,measurement,setting,value
O=C(O)CNCP(=O)(O)O [Glyphosate],LACSE Obs,prickly lettuce (LACSE); 7 DAA,45%
same,LACSE Obs,prickly lettuce (LACSE); 14 DAA,87%
same,LACSE Obs,prickly lettuce (LACSE); 23 DAA,99%
same,LACSE Obs,prickly lettuce (LACSE); 30 DAA,100%
same,LACSE Obs,prickly lettuce (LACSE); 57 DAA,100%
"CCNc1nc(Cl)nc(NC(C)C)n1 [Atrazine, atrazine, reference compound]",AMARE Obs,redroot pigweed (AMARE); [4],72
same,AMARE Obs,redroot pigweed (AMARE); [5],97
same,AMARE Obs,redroot pigweed (AMARE); [6],90
same,AMARE Obs,redroot pigweed (AMARE); [7],100
same,AMARE Obs,redroot pigweed (AMARE); [8],100
same,AMARE Obs,redroot pigweed (AMARE); [9],95
same,AMARE Obs,redroot pigweed (AMARE); [10],99
same,AMARE Obs,redroot pigweed (AMARE); [11],100
same,AMARE Obs,redroot pigweed (AMARE); [12],100
same,AMARE Obs,redroot pigweed (AMARE); [13],100
same,SETFA Obs,giant foxtail (SETFA); [14],20
same,SETFA Obs,giant foxtail (SETFA); [15],25
same,SETFA Obs,giant foxtail (SETFA); [16],40
same,SETFA Obs,giant foxtail (SETFA); [17],43
same,SETFA Obs,giant foxtail (SETFA); [18],38
same,SETFA Obs,giant foxtail (SETFA); [4],37
same,SETFA Obs,giant foxtail (SETFA); [5],67
same,SETFA Obs,giant foxtail (SETFA); [6],83
same,SETFA Obs,giant foxtail (SETFA); [7],87
same,SETFA Obs,giant foxtail (SETFA); [8],88
same,SETFA Obs,giant foxtail (SETFA); [9],35
same,SETFA Obs,giant foxtail (SETFA); [10],60
same,SETFA Obs,giant foxtail (SETFA); [11],58
same,SETFA Obs,giant foxtail (SETFA); [12],65
same,SETFA Obs,giant foxtail (SETFA); [13],80
same,ABUTH Obs,velvetleaf (ABUTH); [14],15
same,ABUTH Obs,velvetleaf (ABUTH); [15],45
same,ABUTH Obs,velvetleaf (ABUTH); [16],55
same,ABUTH Obs,velvetleaf (ABUTH); [17],62
same,ABUTH Obs,velvetleaf (ABUTH); [18],64
same,ABUTH Obs,velvetleaf (ABUTH); [4],37
same,ABUTH Obs,velvetleaf (ABUTH); [5],78
same,ABUTH Obs,velvetleaf (ABUTH); [6],85
same,ABUTH Obs,velvetleaf (ABUTH); [7],98
same,ABUTH Obs,velvetleaf (ABUTH); [8],99
same,ABUTH Obs,velvetleaf (ABUTH); [9],68
same,ABUTH Obs,velvetleaf (ABUTH); [10],63
same,ABUTH Obs,velvetleaf (ABUTH); [11],87
same,ABUTH Obs,velvetleaf (ABUTH); [12],100
same,ABUTH Obs,velvetleaf (ABUTH); [13],99
"O=C(O)COc1ccc(Cl)cc1Cl [2,4-D, (2,4-dichlorophenoxy)acetic acid]",Postemergence TRZAW Obs,winter wheat (TRZAW) [1],20
same,Postemergence TRZAW Obs,winter wheat (TRZAW) [2],20
same,HORVW Obs,"winter barley (HORVW); 2,4-D 250",15
same,HORVW Obs,"winter barley (HORVW); 2,4-D 500",5
same,HORVW Obs,"winter barley (HORVW); 2,4-D 1000",10
same,Postemergence KCHSC Obs,kochia (KCHSC),60
"Nc1nc(C2CC2)nc(C(=O)O)c1Cl [Compound 1, 6-amino-5-chloro-2-cyclopropyl-4-pyrimidinecarboxylic acid]",EPHHL Obs,wild poinsettia (EPHHL); 15 DAA,40
same,EPHHL Obs,wild poinsettia (EPHHL); 29 DAA,70
same,EPHHL Obs,wild poinsettia (EPHHL); 48 DAA,50
same,EPHHL Obs,wild poinsettia (EPHHL); 61 DAA,40
same,IPOGF Obs,[3]; 15 DAA,60
same,IPOGF Obs,[3]; 29 DAA,70
same,IPOGF Obs,[3]; 48 DAA,60
same,IPOGF Obs,[3]; 61 DAA,40
same,HPYSU Obs,wild spikenard (HPYSU); 15 DAA,60
same,HPYSU Obs,wild spikenard (HPYSU); 29 DAA,60
same,HPYSU Obs,wild spikenard (HPYSU); 48 DAA,70
same,HPYSU Obs,wild spikenard (HPYSU); 61 DAA,50
